Experimental data as given in PMC11237012, “Synthesis and preliminary evaluation of novel PET probes for GSK-3 imaging” (Scientific Reports, 2024).

Assay: Radiochemical stability in mouse serum (rad-TLC)
Type: in vitro ADME
Details: 37 °C
Protocol: The stability of PET probes [^18F]2 and [^18F]6 was measured in isotonic NaCl solution (0.9% NaCl) and mouse and human serums at 37 °C for up to 120 min by rad-TLC at 0 min, 30 min, 60 min and 120 min post incubation. The results obtained are presented in Fig. 5 and SI-Figs. S10–S15, SI-Table S1. […] The plausible explanation of the instability of [^18F]6 could be attributed to the covalent interaction of [^18F]6’s SO2F group with primary amines of amino acid residues present in the protein rich mouse and human serums. In fact, in an unrelated study, Zhao et al. reported formation of sulfonamide bond between sulfuryl fluoride and primary amine of conserved lysine residues of different kinases. […] Based on 2’s favorable blood–brain barrier permeability, nanomolar binding affinity and PET probe [^18F]2’s excellent stability in both mouse and human serums, further in vivo evaluations were performed only with PET probe [^18F]2.
Stability of [^18F]2 and [^18F]6 was assessed in isotonic NaCl solution and human and mouse serums. To perform this stability assay, 100 µL of [^18F]2 (~ 37.0 MBq) or 100 µL of [^18F]6 (~ 37.0 MBq) as in final formulation was added to 100 µL of human serum or mouse serum in a microcentrifuge tube. The resultant mixture was incubated at 37 °C for 120 min. To assess the radiochemical stability of the probes, a small aliquot (~ 0.5 µL) was taken out from the mixture in triplicate at 0 min, 30 min, 60 min and 120 min during incubation, and analyzed on a rad-TLC using 0.5:9.5 methanol: chloroform as a mobile phase using i-TLC to estimate the stability of [^18F]2 or [^18F]6 at different time points post-incubation. After Stability preparative processes initial i-TLC development was considered as 0 min.

Measured: Percentage of intact probe

O=C(Nc1cnccc1-c1ccc([18F])cc1)c1ccnc(NC(=O)C2CC2)c1 [[^18F]2]
100 ± 0.0%: 0 min | 30 min | 60 min
